# According to PubChem BioAssay (NCI):
# Several values for one entry are separate records, joined by “and”; a condition that tells them apart may be missing. Identical values can stand only once.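 96-well plates; 48 h exposure; 5 concentrations. Endpoints by linear interpolation between flanking doses. Not reached: highest tested concentration assigned. At the GI50, growth is halved. TGI: concentration producing complete growth inhibition.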
# Assays:
# Assay in all cases: NCI tumour cell line growth inhibition, 48 h
# BT-549 breast = system: BT-549 breast
# HCT-116 colon = system: HCT-116 colon
# MCF7 breast = system: MCF7 breast
# RXF 393 renal = system: RXF 393 renal
# SN12C renal = system: SN12C renal
# T-47D breast = system: T-47D breast
# TK-10 renal = system: TK-10 renal
# DMS 114 small cell lung = system: DMS 114 small cell lung
# DMS 273 small cell lung = system: DMS 273 small cell lung
# KM20L2 colon = system: KM20L2 colon
# SNB-78 CNS = system: SNB-78 CNS
Compound,GI50 (BT-549 breast),TGI (BT-549 breast),GI50 (HCT-116 colon),TGI (HCT-116 colon),GI50 (MCF7 breast),TGI (MCF7 breast),GI50 (RXF 393 renal),GI50 (SN12C renal),TGI (SN12C renal),GI50 (T-47D breast),TGI (T-47D breast),GI50 (TK-10 renal),TGI (TK-10 renal),TGI (DMS 114 small cell lung) [µM],TGI (DMS 273 small cell lung) [µM],TGI (KM20L2 colon) [µM],TGI (RXF 393 renal),TGI (SNB-78 CNS) [µM],GI50 (KM20L2 colon) [µM]
COc1nc(N)nc2c1ncn2C1OC(CO)C(O)C1O (configuration not stated),> 5000 µM,> 5000 µM,> 5000 µM,> 5000 µM,3800 µM,> 5000 µM,2.32 µM,3280 µM,> 5000 µM,> 5000 µM,> 5000 µM,> 5000 µM,> 5000 µM,–,–,–,–,–,–
CCCN(CCCC(NC(C)=O)C(=O)NCc1ccccc1)C(=O)NCCCl (configuration not stated),–,–,–,> 100 µM,–,–,–,–,> 100 µM,–,–,–,> 100 µM,> 100,> 100,> 100,> 100 µM,–,–
CNC(=O)Cc1nc(-c2cccc(NS(=O)(=O)c3c(F)cccc3F)c2F)c(-c2ccnc(Nc3ccccc3)n2)s1,> 35.8 µM,> 50 µM,1.05 µM,> 29.2 µM,19.1 µM,> 50 µM,0.181 µM,1.71 µM,> 50 µM,6.23 µM,> 41.1 µM,3.02 µM,> 40.7 µM,–,–,–,2.84 µM,–,–
CC(C)(C)CC(C)(C)NCc1cc(C(C)(C)C)cc(CNC(C)(C)CC(C)(C)C)c1O,4.15 µM,14.9 µM,2.1 µM,5.78 µM,3.12 µM,11.3 µM,1.92 µM,2.74 µM,11.9 µM,2.09 µM,5.14 µM,2.55 µM,5.87 µM,–,–,–,5.85 µM,–,–
O=c1[nH]c2cc(Cl)ccc2nc1/C(=N\O)C(O)c1ccc([N+](=O)[O-])cc1 (configuration not stated),–,–,–,> 100 µM,–,–,–,–,> 100 µM,–,–,–,> 100 µM,> 100,> 100,> 100,> 100 µM,–,–
COC(=O)C1[C@H](c2cc(OC)c(OC)c(OC)c2)OC(=O)C1(C(=O)OC)C(=O)c1ccc2c(c1)OCO2 (some centres not stated),–,–,–,> 100 µM,–,–,–,–,> 100 µM,–,–,–,> 100 µM,> 100,> 100,> 100,> 100 µM,> 100,–
CN1C(=O)N[C@H]2[C@@H]3NC(=O)c4ccc(Br)n4[C@@H]3C[C@]21O,0.0739 µM,0.405 µM,0.112 µM,2.39 µM,0.0281 µM,1.08 µM,0.0565 µM,0.106 µM,2.19 µM,0.0313 µM,0.23 µM,0.429 µM,4.51 µM,–,–,–,0.486 µM,–,–
OCC(O)c1nc2ccc3[nH]ncc3c2c2c1CCCC2 (configuration not stated),0.934 µM,2.2 µM,1.24 µM,> 50 µM,0.931 µM,> 50 µM,0.612 µM,1.56 µM,> 50 µM,1.6 µM,> 50 µM,1.42 µM,> 50 µM,–,–,–,1.45 µM,–,–
O=[N+]([O-])C1Cc2ccccc2OC1c1ccccc1 (configuration not stated),–,–,–,> 100 µM,–,–,–,–,63 µM,–,–,–,> 100 µM,–,> 100,> 100,45.8 µM,51.5,–
Cc1cc(C)c(NC(=S)NC(=O)c2ccccc2)cc1C,–,> 100 µM,–,> 100 µM,–,> 100 µM,–,–,> 100 µM,–,> 100 µM,–,> 100 µM,–,–,–,> 100 µM,–,–
CN(Cc1cc(Cl)cc(Cl)c1)CC(C(=O)c1ccccc1)c1ccccc1 (configuration not stated),–,17.6 µM,–,2.36 µM,–,> 44.1 µM,–,–,16.3 µM,–,8.68 µM,–,23 µM,–,–,–,> 25.6 µM,–,–
CC(C)(C)C(=O)OCC1CCC(n2cnc3c(=O)[nH]c(N)nc32)O1 (configuration not stated),–,–,–,> 100 µM,–,–,–,–,> 100 µM,–,–,–,> 100 µM,> 100,> 100,> 100,–,> 100,–
O=C1OC(O)C(Oc2c(Cl)cccc2Cl)=C1Cl (configuration not stated),–,–,–,27.9 µM,–,–,–,–,35 µM,–,–,–,69.1 µM,–,30.1,32.9,23.9 µM,94.6,–
C[N+](C)(C)CC(=O)N/N=C(\C(=O)NC1=C(Cl)C(=O)c2ccccc2C1=O)C(C#N)c1csc(-c2ccc([N+](=O)[O-])cc2)n1 (configuration not stated),–,–,–,> 100 µM,–,–,–,–,> 100 µM,–,–,–,> 100 µM,> 100,> 100,> 100,> 100 µM,> 100,–
COc1ccc(OC)c2c1[nH]c(=O)c1c3ncccc3cn21,> 100 µM,> 100 µM,1.85 µM,13.2 µM,2.17 µM,27.3 µM,1.38 µM,4.48 µM,> 100 µM,3.54 µM,> 100 µM,4.07 µM,13.6 µM,–,–,–,4.47 µM,–,–
O=C1/C(=C\c2ccccn2)c2ccccc2N1c1c(Cl)cccc1Cl,2.21 µM,4.88 µM,1.7 µM,3.32 µM,2.41 µM,14.3 µM,1.4 µM,2.65 µM,12.5 µM,2.6 µM,9.66 µM,3.39 µM,12.7 µM,–,–,–,2.73 µM,–,–
COc1cc(Nc2nc3ccccc3cc2C(=O)Nc2ccc(F)c(F)c2)cc(OC)c1OC,2.48 µM,6.54 µM,2.84 µM,9.08 µM,2.16 µM,8.4 µM,2.73 µM,3.43 µM,> 100 µM,1.84 µM,6.39 µM,4.52 µM,> 100 µM,–,–,–,7.98 µM,–,–
CC(=O)[CH-]C(=O)c1ccccc1.CC(=O)[CH-]C(=O)c1ccccc1.CCOCC[O-].CCOCC[O-].[Ti+4],–,–,17.3 µM,35.6 µM,–,–,–,20.6 µM,73.4 µM,–,–,–,–,–,–,> 100,–,–,19.6
CCc1cccc(CC)c1NC(=O)C1=C(C)NC(C)=C(C(=O)Nc2c(CC)cccc2CC)C1c1ccc([N+](=O)[O-])cc1,–,–,–,46.4 µM,–,–,–,–,> 100 µM,–,–,–,82.5 µM,52.4,–,> 100,77.6 µM,–,–
Cc1sc2c(c1C)C(c1ccc(Cl)cc1)=N[C@@H](CC(=O)OC(C)(C)C)c1nnc(C)n1-2,1.15 µM and 3.1 µM,20.8 µM and 20 µM,0.44 µM and 0.311 µM,16.4 µM and 15.4 µM,0.117 µM and 0.06 µM,17.9 µM and 13.6 µM,1.95 µM and 0.737 µM,8.65 µM and 1.95 µM,25.9 µM and 22 µM,0.342 µM and 0.214 µM,18.8 µM and 19 µM,0.154 µM and 0.0583 µM,12.7 µM and 13.4 µM,–,–,–,19 µM and 9.28 µM,–,–
CN(C)C=C1C(Cl)=C(C=O)CC(C=O)=C1Cl,–,–,–,–,–,–,–,–,> 100 µM,–,–,–,31.8 µM,26.1,29,41,–,–,–
